Results on 37 compounds are retold here after the Deep4Chem optical property database.

The data set is described as follows: solvent given as SMILES.

With `C(S/C=C/c1ccc(-c2ccc(/C=C/SC=C3CCCCC3)cc2)cc1)=C1CCCCC1`, where the note is “in ClCCl”, the absorption maximum turned out to be 351 nm.

Consider `O=P1(c2ccccc2)c2ccccc2-c2sc3ccccc3c21` (stereo not given), for which the absorption maximum runs as follows: (in C1CCCCC1) 327 nm; (in CC#N) 327 nm; (in CCO) 329 nm; (in ClCCl) 329 nm.

Take `CN(C)c1ccc(C#Cc2ccc3ccc4ccc(C#Cc5ccc(N(C)C)cc5)c5ccc2c3c45)cc1`: the absorption maximum runs as follows: (in C1COCCO1) 429 nm; (in CC(C)=O) 431 nm; (in CCCCCC) 421 nm; (in CCCCCCO) 429 nm; (in CCO) 426 nm; (in CCOC(C)=O) 428 nm. Further, the absorption maximum by setting is: (in CO) 427 nm; (in Cc1ccccc1) 429 nm; (in ClCCl) 429 nm.

Consider `CCCCN(CCCC)c1ccc(C#Cc2cc(C#Cc3c(F)c(F)c(F)c(F)c3F)c(C#Cc3ccc(N(CCCC)CCCC)cc3)cc2C#Cc2c(F)c(F)c(F)c(F)c2F)cc1`, for which the absorption maximum (in ClCCl) was determined as 462 nm.

`Cc1ccc(-c2cc(-c3ccccc3)c3c(N)nc(N4CCCC4)c(C#N)c3n2)cc1` came in with an absorption maximum (in CC#N) of 412 nm; an absorption maximum (in CC(C)=O) of 414 nm; an absorption maximum (in CC(C)O) of 414 nm; an absorption maximum (in CO) of 414 nm; an absorption maximum (in ClC(Cl)Cl) of 420 nm; an absorption maximum (in ClCCl) of 420 nm. For the same compound, the absorption maximum (in c1ccccc1) is 424 nm.

`c1ccc(N(c2ccccc2)c2ccc(-c3ccc4c(c3)C3(c5cc(-c6ccc(N(c7ccccc7)c7ccccc7)cc6)ccc5-4)c4ccccc4N(c4ccccc4)c4ccccc43)cc2)cc1` gave an absorption maximum (in ClCCl) of 372 nm.

The compound `O=C1C=C(Nc2ccccc2[N+](=O)[O-])C(=O)c2ccccc21` gave an absorption maximum (in CO) of 450 nm.

Regarding `Cc1ccc(C2=C(c3ccc(C)cc3)c3cccc4c3c(cc3nc5ccccc5nc34)O2)cc1`, the absorption maximum (in ClCCl) is recorded as 498 nm.

Under “in O”, `COc1cc2cc(-c3ccc(C(=O)OCOC(C)=O)cc3C(=O)OCOC(C)=O)oc2cc1N1CCOCCOCCN(c2cc3oc(-c4ccc(C(=O)OCOC(C)=O)cc4C(=O)OCOC(C)=O)cc3cc2OC)CCOCCOCC1` yielded an absorption maximum of 350 nm.

As for `COc1ccc(N2c3c(sc4ccccc34)Sc3sc4ccccc4c32)cc1`, the absorption maximum (in ClCCl) worked out at 309 nm.

For the compound `COc1ccc(C2=[N+]3C(=Nc4c(-c5ccccc5)cc(-c5ccc(OC)cc5)n4[B-]3(F)F)C(c3ccccc3)=C2)cc1`, the absorption maximum is, setting by setting: (in ClC(Cl)Cl) 688 nm; (in ClCCl) 688 nm.

`CCN(CC)c1ccc2cc(-c3cn4cc(C)ccc4n3)c(=O)oc2c1` came in with an absorption maximum (in ClC(Cl)Cl) of 424 nm.

Turning to `CCCCN(CCCC)c1ccc(C#Cc2cc(C#Cc3ccc(C(F)(F)F)cc3)c(C#Cc3ccc(N(CCCC)CCCC)cc3)cc2C#Cc2ccc(C(F)(F)F)cc2)cc1`, the absorption maximum (in ClCCl) was 438 nm.

Under “in C1CCOC1”, `C1=C(c2ccccc2)C(c2ccccc2)C(c2ccccc2)=C1` came in with an absorption maximum of 304 nm.

Consider `Cc1nc2c(ccc3c2sc(/C=C/c2ccc(N(C)C)cc2)[n+]3C)s1`, for which the absorption maximum by setting is: (in CO) 534 nm; (in ClC(Cl)Cl) 557 nm.

The compound `CCCCOC(=O)/C(C#N)=C1\C(=CC2=[N+](C)c3ccccc3C2(C)C)C([O-])=C1C=C1N(C)c2ccccc2C1(C)C` gave an absorption maximum (in ClC(Cl)Cl) of 691 nm.

For the setting “in ClCCl”, `CC1=C(C)c2cccc3c2c(cc2nc4ccccc4nc23)O1` registered an absorption maximum of 497 nm.

For the setting “in ClCCl”, `COC(=O)C1=C(C(=O)OC)C2(c3cc([N+](=O)[O-])ccc3-c3ccc([N+](=O)[O-])cc32)C2(/C=C/c3ccccc3)c3cc(OC)c(OC)cc3CCN12` (stereo not given) had an absorption maximum of 337 nm.

Under “in O”, `CC(=O)Nc1ccc2c(c1)c(=O)c1ccccc1n2CCCCCC(=O)O` came in with an absorption maximum of 398 nm.

`CC[n+]1nc2cc3c(cc2c2cc(C)ccc21)N(C)CCC3` showed an absorption maximum (in O) of 487 nm.

`Nc1ccc(-c2ccc(N)cc2)cc1`: the absorption maximum is, setting by setting: (in C1CCOC1) 306 nm; (in C1COCCO1) 289 nm; (in CC#N) 286 nm; (in CCCCCC) 279 nm; (in CCOC(C)=O) 285 nm; (in CN(C)C=O) 299 nm. Besides, the absorption maximum turned out to be 281 nm (in CO); 292 nm (in CS(C)=O); 295 nm (in Cc1ccccc1); 305 nm (in ClC(Cl)Cl); 286 nm (in ClCCl); 281 nm (in O).

`O=C(O)CCCCCn1c2ccc(Br)cc2c(=O)c2cc(Br)ccc21`: the absorption maximum (in O) worked out at 425 nm.

For the compound `Cc1ccc2nc3c(=O)[nH]c(=O)[nH]c3nc2c1C`, where the note is “in CC#N”, the absorption maximum is given as 375 nm.

Regarding `O=C(O)c1ccc(-c2nc(-c3ccccc3)c3ccccn23)cc1`, under “in CC#N”, the absorption maximum is 372 nm.

`CCCn1c(-c2cc(-c3nc4ccccc4n3CCC)cc(-c3nc4ccccc4n3CCC)c2)nc2ccccc21`: the absorption maximum (in CS(C)=O) is 301.5 nm.

On to `COc1ccc(-n2nc(C#N)c(N3CCN(c4ccccn4)CC3)n2)cc1`, for which, for the setting “in CC#N”, the absorption maximum is 321 nm.

In turn, `N#Cc1nc2c3ccc(-c4ccc(-n5c6ccccc6c6ccccc65)cc4)cc3c3cc(-c4ccc(-n5c6ccccc6c6ccccc65)cc4)ccc3c2nc1C#N` came in with an absorption maximum (in Cc1ccccc1) of 418 nm.

Compound `C[Si](C)(C)O[Si]1(O[Si](C)(C)C)n2c3c4ccccc4c2/N=C2N=C(/N=c4/c5ccccc5/c(n41)=N/C1=NC(=N\3)/c3ccccc31)c1ccccc1\2` registered an absorption maximum (in CN(C)C=O) of 668 nm.

As for `COc1ccc(C#Cc2nc3ccccc3nc2-c2cn(C)c3ccccc23)cc1`, the absorption maximum runs as follows: (in C1CCOC1) 408 nm; (in CC#N) 407 nm; (in CC(C)=O) 408 nm; (in CC(C)O) 415 nm; (in CCO) 415 nm; (in CCOC(C)=O) 405 nm. Moreover, the absorption maximum runs as follows: (in CO) 415 nm; (in Cc1ccccc1) 407 nm; (in ClCCl) 408 nm.

For `COc1c(Br)c2cc(=O)oc3ccc4cccc1c4c32`, the absorption maximum (in CC1CCCO1) is on record as 475 nm.

As to `S=P1(c2ccccc2)c2cccc3c4c5ccccc5c5ccccc5c4c4ccc1n4c23` (stereo not given), the absorption maximum (in ClCCl) is 422 nm.

Regarding `COC(=O)/C=C/c1sc(-c2ccc(N(C)C)s2)c(-c2ccsc2)c1N`, where the note is “in CC#N”, the absorption maximum came to 472 nm.

Compound `COc1ccc(-c2cnc(/C=C/c3ccc(C#N)cc3)o2)cc1OC` had an absorption maximum (in ClCCl) of 370 nm.

`COc1cc2c(cc1OC)C1=C[C@H](c3ccc(C)cc3)C3(C(C#N)=C(C#N)N1CC2)c1cc(Br)ccc1-c1ccc(Br)cc13` came in with an absorption maximum (in ClCCl) of 315 nm.

Consider `COc1ccc2c(-c3nc(-c4cccc(C)c4)no3)cc(=O)oc2c1`, for which the absorption maximum stood at 401 nm (in CCO) and 403 nm (in ClC(Cl)Cl).

Take `CN(C)c1ccc(C2=Nc3sc4cc(F)ccc4[n+]3[B-](F)(F)O2)cc1`: the absorption maximum is, setting by setting: (in C1CCOC1) 425 nm; (in CC#N) 422 nm; (in CC(C)=O) 426 nm; (in Cc1ccccc1) 423 nm; (in ClCCl) 425 nm.

Turning to `CCCCc1ccc(-n2c3c(c4c2c2c(n4-c4ccc(CCCC)cc4)-c4cc(F)ccc4NB2c2ccccc2)B(c2ccccc2)Nc2ccc(F)cc2-3)cc1`, the absorption maximum (in Cc1ccccc1) worked out at 395 nm.
